This note sets out measurements from EP3046573B1, “AMYLIN ANALOGUES” (Zealand Pharma A/S, priority 2013, dated 2015).

Numbered stars: 1 amine (or outer) side, 2 acyl side, 3 side chain; on linkers, the order of the positions; unused ones are H or OH. Bridge positions count the residues as written; N and C are the ends. Square brackets hold non-standard residues; d marks the D form. Peptide text beside a SMILES is read from it. * marks the point of attachment. C20 diacid = O=C(O)CCCCCCCCCCCCCCCCCCC(=O)*; Pro(4R-NH2) = N[C@H]1CN[C@H](C(=O)O)C1; γGlu = O=C(O)[C@H](CCC(=O)[*:2])N[*:1]; Hyp = O=C(O)[C@@H]1C[C@@H](O)CN1; NMeI = CC[C@H](C)[C@H](NC)C(=O)O; Aze = O=C(O)[C@@H]1CCN1; Sar = CNCC(=O)O

Data set [1] in a line: Solubility assessment (turbidity absorbance at 325 nm). The note with it: stock 2 mg/ml diluted 1:1, ambient temperature (typically 25°C), n=1; for Solubility, Acetate buffer pH 4: 100 mM acetate buffer pH 4.0; for Solubility, Acetate buffer pH 5: 100 mM acetate buffer pH 5.0; for Solubility, Histidine buffer pH 6: 100 mM histidine buffer pH 6.0; for Solubility, Histidine buffer pH 7: 100 mM histidine buffer pH 7.0; for Solubility, Phosphate buffer pH 6: 100 mM phosphate buffer pH 6.0; for Solubility, Phosphate buffer pH 7: 100 mM phosphate buffer pH 7.0; for Solubility, Phosphate buffer pH 7.5: 100 mM phosphate buffer pH7.5. Format: physicochemical. The method, boiled down: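 Peptide stock (2 mg/ml, water pH 2.5) diluted 1:1 into 100 mM acetate (pH 4.0, 5.0), histidine (pH 6.0, 7.0) or phosphate (pH 6.0–7.5) buffer; absorbance at 325 nm read at about 25°C, n=1. A325 ≤ 0.02 taken as solubility ≥ 1 mg/ml.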

The nature of data set [2]: Assessment of physical stability: fibril formation detected with Thioflavin T (ThT), lag-time. Format: physicochemical. The settings on record: 1 mg/ml peptide, 40 µM ThT, FND = Fibrillation not detected; for Fibrillation lag time (hours) pH 4.0 (Ac): 50 mM acetate buffer pH 4.0, 96 hours at 40°C; for Fibrillation lag time (hours) pH 7.0 (His): 50 mM histidine buffer pH 7.0, 96 hours at 40°C; for Fibrillation lag time (hours) pH 7.0 (Ph): 50 mM phosphate buffer pH 7.0, 96 hours at 40°C. The method, boiled down: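 Test peptide at 1 mg/ml with 40 µM ThT in 50 mM phosphate (pH 7.0), 50 mM histidine (pH 7.0) or 50 mM acetate (pH 4.0), in triplicate, 40° C. for 96 h. Fluorescence read every 10 min after 300 s agitation. Lag-time (h) taken as intersection of linear fits to initial stable and growth phases.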

The test system of data set [3] is Sprague Dawley (SD) rats. Kind of data set: Acute food intake and body weight in normal Sprague Dawley rats. Format: in vivo. The settings on record: vehicle-corrected, dose 30 nmol/kg sc, once; for Body weight loss (%) after 96 hours: mean ± SEM, n = 8. The method, boiled down: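 Normal male-unspecified SD rats, n = 8 per group, given a single s.c. peptide dose of 30 nmol/kg just before dark phase, with vehicle and positive control groups. Food intake recorded at 0, 4, 7, 10, 24, 48, 72 and 96 h; body weight daily; means ± SEM.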

With `CC[C@H](C)[C@@H](C(=O)N[C@@H](CC(C)C)C(=O)N[C@@H](CO)C(=O)N[C@@H](CO)C(=O)N[C@H](C(=O)N[C@@H](CC(N)=O)C(=O)N[C@H](C(=O)NCC(=O)N[C@@H](CO)C(=O)N[C@@H](CC(N)=O)C(=O)N[C@H](C(=O)N1C[C@H](O)C[C@H]1C(N)=O)[C@@H](C)O)C(C)C)[C@@H](C)O)N(C)C(=O)[C@H](C)NC(=O)CN(C)C(=O)[C@H](Cc1ccccc1)NC(=O)[C@H](CC(N)=O)NC(=O)[C@H](CC(N)=O)NC(=O)[C@H](CO)NC(=O)[C@H](CO)NC(=O)[C@H](CCCNC(=N)N)NC(=O)[C@H](Cc1c[nH]cn1)NC(=O)[C@H](CC(C)C)NC(=O)[C@H](Cc1ccccc1)NC(=O)[C@H](CCC(=O)O)NC(=O)[C@H](C)NC(=O)[C@H](CC(C)C)NC(=O)[C@H](CCCNC(=N)N)NC(=O)[C@H](CCC(N)=O)NC(=O)[C@@H](NC(=O)[C@H](C)NC(=O)[C@@H]1CSSC[C@H](NC(=O)[C@H](CCCNC(=N)N)NC(=O)CC[C@H](NC(=O)CCCCCCCCCCCCCCCCCCC(=O)O)C(=O)O)C(=O)N[C@@H](CC(N)=O)C(=O)N[C@@H]([C@@H](C)O)C(=O)N[C@@H](C)C(=O)N[C@@H]([C@@H](C)O)C(=O)N1)[C@@H](C)O` [Compound 105, [19CD]-isoGlu-RC()NTATC()ATQRLAEFLHRSSNNF-Gly(Me)-A-Ile(Me)-LSSTNVGSNT-Hyp-NH2] ({C20 diacid-γGlu}-RCNTATCATQRLAEFLHRSSNNF[Sar]A[NMeI]LSSTNVGSNT[Hyp]-NH2; disulfide 2-7), in data set [1], the “Solubility, Acetate buffer pH 4” value is recorded as “SS (SS indicates solubility ≥ 1mg/ml)”; the “Solubility, Acetate buffer pH 5” value is reported as “SS (SS indicates solubility ≥ 1mg/ml)”; the “Solubility, Histidine buffer pH 6” value is listed as “SS (SS indicates solubility ≥ 1mg/ml)”; the “Solubility, Histidine buffer pH 7” value is recorded as “SS (SS indicates solubility ≥ 1mg/ml)”. Also, in data set [1], the “Solubility, Phosphate buffer pH 6” value is recorded as “SS (SS indicates solubility ≥ 1mg/ml)”; the “Solubility, Phosphate buffer pH 7” value is “SS (SS indicates solubility ≥ 1mg/ml)”; the “Solubility, Phosphate buffer pH 7.5” value was “SS (SS indicates solubility ≥ 1mg/ml)”. For the same compound, in data set [2], the “Fibrillation lag time (hours) pH 4.0 (Ac)” value (“Fibrillation lag time … (Ac)” below) is “FND”, the “Fibrillation lag time (hours) pH 7.0 (His)” value (from here on “Fibrillation lag time … (His)”) is reported as “FND” and the “Fibrillation lag time (hours) pH 7.0 (Ph)” value (“Fibrillation lag time … (Ph)” below) was “FND”. Further, in data set [3], the “Body weight loss (%) after 96 hours” value is reported as 7 ± 2.4%.
On to `CC[C@H](C)[C@@H](C(=O)N[C@@H](CC(C)C)C(=O)N[C@@H](CO)C(=O)N[C@@H](CO)C(=O)N[C@H](C(=O)N[C@@H](CC(N)=O)C(=O)N[C@H](C(=O)NCC(=O)N[C@@H](CO)C(=O)N[C@@H](CC(N)=O)C(=O)N[C@H](C(=O)N1CC[C@H]1C(N)=O)[C@@H](C)O)C(C)C)[C@@H](C)O)N(C)C(=O)[C@H](C)NC(=O)CN(C)C(=O)[C@H](Cc1ccccc1)NC(=O)[C@H](CC(N)=O)NC(=O)[C@H](CC(N)=O)NC(=O)[C@H](CO)NC(=O)[C@H](CO)NC(=O)[C@H](CCCNC(=N)N)NC(=O)[C@H](Cc1c[nH]cn1)NC(=O)[C@H](CC(C)C)NC(=O)[C@H](Cc1ccccc1)NC(=O)[C@H](CCC(=O)O)NC(=O)[C@H](C)NC(=O)[C@H](CC(C)C)NC(=O)[C@H](CCCNC(=N)N)NC(=O)[C@H](CCC(N)=O)NC(=O)[C@@H](NC(=O)[C@H](C)NC(=O)[C@@H]1CSSC[C@H](NC(=O)[C@H](CCCNC(=N)N)NC(=O)CC[C@H](NC(=O)CCCCCCCCCCCCCCCCCCC(=O)O)C(=O)O)C(=O)N[C@@H](CC(N)=O)C(=O)N[C@@H]([C@@H](C)O)C(=O)N[C@@H](C)C(=O)N[C@@H]([C@@H](C)O)C(=O)N1)[C@@H](C)O` [Compound 107, [19CD]-isoGlu-RC()NTATC()ATQRLAEFLHRSSNNF-Gly(Me)-A-Ile(Me)-LSSTNVGSNT-Aze-NH2] ({C20 diacid-γGlu}-RCNTATCATQRLAEFLHRSSNNF[Sar]A[NMeI]LSSTNVGSNT[Aze]-NH2; disulfide 2-7), for which, in data set [1], the “Solubility, Acetate buffer pH 4” value is on record as “SS (SS indicates solubility ≥ 1mg/ml)”; the “Solubility, Acetate buffer pH 5” value was “SS (SS indicates solubility ≥ 1mg/ml)”; the “Solubility, Histidine buffer pH 6” value was “SS (SS indicates solubility ≥ 1mg/ml)”; the “Solubility, Histidine buffer pH 7” value is “SS (SS indicates solubility ≥ 1mg/ml)”. In addition, in data set [1], the “Solubility, Phosphate buffer pH 6” value is recorded as “SS (SS indicates solubility ≥ 1mg/ml)”; the “Solubility, Phosphate buffer pH 7” value is “SS (SS indicates solubility ≥ 1mg/ml)”; the “Solubility, Phosphate buffer pH 7.5” value is “SS (SS indicates solubility ≥ 1mg/ml)”. For the same compound, in data set [2], the “Fibrillation lag time … (Ac)” value is listed as “FND”, the “Fibrillation lag time … (His)” value is “FND” and the “Fibrillation lag time … (Ph)” value is given as 16 hours. In data set [3], the “Food intake inhibition (%) after 48 hours” value was determined as 83% and the “Body weight loss (%) after 96 hours” value is given as 6 ± 1.5%.
Consider `CC[C@H](C)[C@@H](C(=O)N[C@@H](CC(C)C)C(=O)N[C@@H](CO)C(=O)N[C@@H](CO)C(=O)N[C@H](C(=O)N[C@@H](CC(N)=O)C(=O)N[C@H](C(=O)NCC(=O)N[C@@H](CO)C(=O)N[C@@H](CC(N)=O)C(=O)N[C@H](C(=O)N1C[C@H](N)C[C@H]1C(N)=O)[C@@H](C)O)C(C)C)[C@@H](C)O)N(C)C(=O)[C@H](C)NC(=O)CN(C)C(=O)[C@H](Cc1ccccc1)NC(=O)[C@H](CC(N)=O)NC(=O)[C@H](CC(N)=O)NC(=O)[C@H](CO)NC(=O)[C@H](CO)NC(=O)[C@H](CCCNC(=N)N)NC(=O)[C@H](Cc1c[nH]cn1)NC(=O)[C@H](CC(C)C)NC(=O)[C@H](Cc1ccccc1)NC(=O)[C@H](CCC(=O)O)NC(=O)[C@H](C)NC(=O)[C@H](CC(C)C)NC(=O)[C@H](CCCNC(=N)N)NC(=O)[C@H](CCC(N)=O)NC(=O)[C@@H](NC(=O)[C@H](C)NC(=O)[C@@H]1CSSC[C@H](NC(=O)[C@H](CCCNC(=N)N)NC(=O)CC[C@H](NC(=O)CCCCCCCCCCCCCCCCCCC(=O)O)C(=O)O)C(=O)N[C@@H](CC(N)=O)C(=O)N[C@@H]([C@@H](C)O)C(=O)N[C@@H](C)C(=O)N[C@@H]([C@@H](C)O)C(=O)N1)[C@@H](C)O` [Compound 110, [19CD]-isoGlu-RC()NTATC()ATQRLAEFLHRSSNNF-Gly(Me)-A-Ile(Me)-LSSTNVGSNT-Apr-NH2] ({C20 diacid-γGlu}-RCNTATCATQRLAEFLHRSSNNF[Sar]A[NMeI]LSSTNVGSNT[Pro(4R-NH2)]-NH2; disulfide 2-7), for which, in data set [1], the “Solubility, Acetate buffer pH 4” value is “SS (SS indicates solubility ≥ 1mg/ml)”; the “Solubility, Acetate buffer pH 5” value is on record as “SS (SS indicates solubility ≥ 1mg/ml)”; the “Solubility, Histidine buffer pH 6” value was “SS (SS indicates solubility ≥ 1mg/ml)”; the “Solubility, Histidine buffer pH 7” value is listed as “SS (SS indicates solubility ≥ 1mg/ml)”. Further, in data set [1], the “Solubility, Phosphate buffer pH 6” value is recorded as “II (II indicates solubility ≤ 1 mg/ml)”; the “Solubility, Phosphate buffer pH 7” value was “SS (SS indicates solubility ≥ 1mg/ml)”; the “Solubility, Phosphate buffer pH 7.5” value is “SS (SS indicates solubility ≥ 1mg/ml)”. In data set [2], the “Fibrillation lag time … (Ac)” value was “FND”, the “Fibrillation lag time … (His)” value is “FND” and the “Fibrillation lag time … (Ph)” value is “FND”. In data set [3], the “Food intake inhibition (%) after 48 hours” value is reported as 98% and the “Body weight loss (%) after 96 hours” value worked out at 11 ± 1.1%.
